Assay results taken from US8912216B2, “Hetaryl-[1,8]naphthyridine derivatives” (Merck Patent GmbH, priority 2010, dated 2014).
pIC50: −log10 of the molar value.

Legend:
GST-ALK5 = target: T1, GST-ALK5 (Homo sapiens, UniProt P36897); assay: In-vitro (enzyme) kinase assay, 384-well flashplate (Example 36); type: biochemical; conditions: GST-ALK5, GST-SMAD2 substrate, 3 mM ATP, 30° C., 45 min; read-out: TβR activity (Example 36)
T1 sequence (P36897 34-503): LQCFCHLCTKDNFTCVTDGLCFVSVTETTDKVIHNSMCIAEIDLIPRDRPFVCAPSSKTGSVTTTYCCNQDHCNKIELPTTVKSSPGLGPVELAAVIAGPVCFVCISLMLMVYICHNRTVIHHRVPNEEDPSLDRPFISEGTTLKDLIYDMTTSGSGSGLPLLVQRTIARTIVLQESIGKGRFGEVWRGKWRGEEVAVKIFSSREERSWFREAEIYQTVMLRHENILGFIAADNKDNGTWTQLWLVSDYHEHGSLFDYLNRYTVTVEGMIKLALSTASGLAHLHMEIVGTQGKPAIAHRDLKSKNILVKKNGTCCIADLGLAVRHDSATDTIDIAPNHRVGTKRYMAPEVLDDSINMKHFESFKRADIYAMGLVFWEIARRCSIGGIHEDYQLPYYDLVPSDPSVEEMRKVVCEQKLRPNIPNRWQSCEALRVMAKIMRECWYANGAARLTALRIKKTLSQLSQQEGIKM
In short: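 Radiometric flashplate assay: 31.2 nM GST-ALK5 phosphorylating 439 nM GST-SMAD2 with 3 mM ATP plus ³³P-ATP, in HEPES/MgCl2/MnCl2/DTT/BSA buffer pH 7.4, 45 min at 30 °C, 5-10 compound concentrations. EDTA stop, filtration and washing, then radioactivity counted; IC50 derived from the curve.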

[1] = system: TGF-beta-induced phosphorylation of Smad2 and Smad3 in Mv1-Lu cells; assay: Inhibition of Smad2/3 phosphorylation in Mv1Lu cells (Example 35A); type: cell-based, mink Mustela vison; conditions: Neogale vison, Mv1-Lu cells, TGF-beta 1 5 ng/ml, phospho-Smad2/3 ELISA, read-out: TβR activity (Example 35A)
In short: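 Serum-starved (16-20 h) Mv1-Lu mink lung epithelial cells were pre-incubated 1.5 h with compound dilutions (0.2% DMSO), then stimulated 1 h with 5 ng/ml TGF-beta 1. Phospho-Smad2 (Ser465/467)/Smad3 (Ser423/425) in lysates was measured by ELISA. IC50 came from dose-response fits between stimulated and unstimulated controls.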

Row | Compound | pIC50 (GST-ALK5) | pIC50 [1]
1 | CN1CCC(NC(=O)c2cccc(-c3cncc(-c4cc(-c5cc(Cl)ccc5F)nc5ncccc45)c3)c2)CC1 [compound 126, 3-{5-[2-(5-Chloro-2-fluoro-phenyl)-[1,8]naphthyridin-4-yl]-pyridin-3-yl}-N-(1-methyl-piperidin-4-yl)-benzamide] | 6.00 to 7.00 | 6.00 to 7.00
2 | CNC(=O)c1cccc(-c2cncc(-c3cc(-c4cc(Cl)ccc4F)nc4ncccc34)c2)n1 [compound 127, 5′-[2-(5-Chloro-2-fluoro-phenyl)-[1,8]naphthyridin-4-yl]-[2,3′]bipyridinyl-6-carboxylic acid methylamide] | 5.00 to 6.00 | < 5.00
3 | Cc1ccn(-c2cc(-c3cncc(-c4ccc(N5CCN(C)CC5)cc4)c3)c3cccnc3n2)n1 [compound 128, 4-{5-[4-(4-Methyl-piperazin-1-yl)-phenyl]-pyridin-3-yl}-2-(3-methyl-pyrazol-1-yl)-[1,8]naphthyridine] | 5.00 to 6.00 | 5.00 to 6.00
4 | Nc1cccnc1-c1cncc(-c2cc(-c3cc(Cl)ccc3F)nc3ncccc23)c1 [compound 129, 5′-[2-(5-Chloro-2-fluoro-phenyl)-[1,8]naphthyridin-4-yl]-[2,3′]bipyridinyl-3-ylamine] | < 5.00 | < 5.00
5 | CN1CCN(c2ccc(-c3cnnc(-c4cc(-c5cc(Cl)ccc5F)nc5ncccc45)c3)cc2)CC1 [compound 130, 2-(5-Chloro-2-fluoro-phenyl)-4-{5-[4-(4-methyl-piperazin-1-yl)-phenyl]-pyridazin-3-yl}-[1,8]naphthyridine] | 5.00 to 6.00 | 5.00 to 6.00
6 | O=C1COc2ccc(-c3cncc(-c4cc(-c5cc(Cl)ccc5F)nc5ncccc45)c3)cc2N1 [compound 131, 6-{5-[2-(5-Chloro-2-fluoro-phenyl)-[1,8]naphthyridin-4-yl]-pyridin-3-yl}-4H-benzo[1,4]oxazin-3-one] | > 7.00 | 6.00 to 7.00
7 | CN1CCN(c2ccnc(-c3cncc(-c4cc(-c5cc(Cl)ccc5F)nc5ncccc45)c3)c2)CC1 [compound 132, 2-(5-Chloro-2-fluoro-phenyl)-4-[4-(4-methyl-piperazin-1-yl)-[2,3′]bipyridinyl-5′-yl]-[1,8]naphthyridine] | > 7.00 | > 7.00
8 | N#Cc1ccnc(-c2cncc(-c3cc(-c4cc(Cl)ccc4F)nc4ncccc34)c2)c1 [compound 133, 5′-[2-(5-Chloro-2-fluoro-phenyl)-[1,8]naphthyridin-4-yl]-[2,3′]bipyridinyl-4-carbonitrile] | < 5.00 | < 5.00
9 | Fc1ccc(Cl)cc1-c1cc(-c2cncc(-c3ccc4c(c3)OCCO4)c2)c2cccnc2n1 [compound 134, 2-(5-Chloro-2-fluoro-phenyl)-4-[5-(2,3-dihydro-benzo[1,4]dioxin-6-yl)-pyridin-3-yl]-[1,8]naphthyridine] | 6.00 to 7.00 | > 7.00
10 | NS(=O)(=O)c1cccc(-c2cncc(-c3cc(-c4cc(Cl)ccc4F)nc4ncccc34)c2)c1 [compound 135, 3-{5-[2-(5-Chloro-2-fluoro-phenyl)-[1,8]naphthyridin-4-yl]-pyridin-3-yl}-benzene-sulfonamide] | > 7.00 | 6.00 to 7.00
11 | Fc1ccc(Cl)cc1-c1cc(-c2cncc(-c3ccc4c(c3)CNCC4)c2)c2cccnc2n1 [compound 136, 2-(5-Chloro-2-fluoro-phenyl)-4-[5-(1,2,3,4-tetrahydro-isoquinolin-7-yl)-pyridin-3-yl]-[1,8]naphthyridine] | > 7.00 | > 7.00
12 | Fc1ccc(F)c(-c2cc(-c3cccnc3)c3cccnc3n2)c1 [compound 137, 2-(2,5-Difluoro-phenyl)-4-pyridin-3-yl-[1,8]naphthyridine] | 5.00 to 6.00 | < 5.00
13 | NC(=O)COc1ccc(-c2cncc(-c3cc(-c4cc(Cl)ccc4F)nc4ncccc34)c2)cc1 [compound 138, 2-(4-{5-[2-(5-Chloro-2-fluoro-phenyl)-[1,8]naphthyridin-4-yl]-pyridin-3-yl}-phenoxy)-acetamide] | > 7.00 | 6.00 to 7.00
14 | CN(C)CCCOc1ccc(-c2cncc(-c3cc(-c4cc(Cl)ccc4F)nc4ncccc34)c2)cc1 [compound 139, [3-(4-{5-[2-(5-Chloro-2-fluoro-phenyl)-[1,8]naphthyridin-4-yl]-pyridin-3-yl}-phenoxy)-propyl]-dimethyl-amine] | > 7.00 | > 7.00
15 | CN1CCN(c2ccc(-c3cncc(-c4cc(-c5cc(F)ccc5F)nc5ncccc45)c3)nn2)CC1 [compound 140, 2-(2,5-Difluoro-phenyl)-4-{5-[6-(4-methyl-piperazin-1-yl)-pyridazin-3-yl]-pyridin-3-yl}-[1,8]naphthyridine] | 6.00 to 7.00 | 5.00 to 6.00
16 | CN1CCN(c2cccc(-c3cncc(-c4cc(-c5cc(Cl)ccc5F)nc5ncccc45)c3)n2)CC1 [compound 141, 2-(5-Chloro-2-fluoro-phenyl)-4-[6-(4-methyl-piperazin-1-yl)-[2,3′]bipyridinyl-5′-yl]-[1,8]naphthyridine] | 6.00 to 7.00 | 6.00 to 7.00
17 | NCCOc1cccc(-c2cncc(-c3cc(-c4cc(Cl)ccc4F)nc4ncccc34)c2)c1 [compound 143, 2-(3-{5-[2-(5-Chloro-2-fluoro-phenyl)-[1,8]naphthyridin-4-yl]-pyridin-3-yl}-phenoxy)-ethylamine] | > 7.00 | 6.00 to 7.00
18 | Fc1ccc(F)c(-c2cc(-c3cncc(-c4cccc(OC5CCNCC5)c4)c3)c3cccnc3n2)c1 [compound 144, 2-(2,5-Difluoro-phenyl)-4-{5-[3-(piperidin-4-yloxy)-phenyl]-pyridin-3-yl}-[1,8]naphthyridine] | > 7.00 | 6.00 to 7.00
19 | O=S(=O)(c1cccc(-c2cncc(-c3cc(-c4cc(Cl)ccc4F)nc4ncccc34)c2)c1)N1CCNCC1 [compound 145, 2-(5-Chloro-2-fluoro-phenyl)-4-{5-[3-(piperazine-1-sulfonyl)-phenyl]-pyridin-3-yl}-[1,8]naphthyridine] | 6.00 to 7.00 | 5.00 to 6.00
20 | CC1(C)CCNc2ccc(-c3cncc(-c4cc(-c5cc(Cl)ccc5F)nc5ncccc45)c3)cc21 [compound 146, 2-(5-Chloro-2-fluoro-phenyl)-4-[5-(4,4-dimethyl-1,2,3,4-tetrahydro-quinolin-6-yl)-pyridin-3-yl]-[1,8]naphthyridine] | 6.00 to 7.00 | 6.00 to 7.00
21 | Fc1ccc(F)c(-c2cc(-c3cncc(-c4cccc(OCC5CCNCC5)c4)c3)c3cccnc3n2)c1 [compound 147, 2-(2,5-Difluoro-phenyl)-4-{5-[3-(piperidin-4-ylmethoxy)-phenyl]-pyridin-3-yl}-[1,8]naphthyridine] | 6.00 to 7.00 | 5.00 to 6.00
22 | Fc1ccc(F)c(-c2cc(-c3cncc(-c4cccc(OCCN5CCNCC5)c4)c3)c3cccnc3n2)c1 [compound 148, 2-(2,5-Difluoro-phenyl)-4-{5-[3-(2-piperazin-1-yl-ethoxy)-phenyl]-pyridin-3-yl}-[1,8]naphthyridine] | > 7.00 | > 7.00
23 | CN1CCc2cc(-c3cncc(-c4cc(-c5cc(Cl)ccc5F)nc5ncccc45)c3)ccc21 [compound 149, 2-(5-Chloro-2-fluoro-phenyl)-4-[5-(1-methyl-2,3-dihydro-1H-indol-5-yl)-pyridin-3-yl]-[1,8]naphthyridine] | 6.00 to 7.00 | > 7.00
24 | Cn1ccc2cc(-c3cncc(-c4cc(-c5cc(Cl)ccc5F)nc5ncccc45)c3)ccc21 [compound 150, 2-(5-Chloro-2-fluoro-phenyl)-4-[5-(1-methyl-1H-indol-5-yl)-pyridin-3-yl]-[1,8]naphthyridine] | 6.00 to 7.00 | > 7.00
25 | Fc1ccc(Cl)cc1-c1cc(-c2cncc(-c3ccc4c(c3)NCCC4)c2)c2cccnc2n1 [compound 151, 2-(5-Chloro-2-fluoro-phenyl)-4-[5-(1,2,3,4-tetrahydro-quinolin-7-yl)-pyridin-3-yl]-[1,8]naphthyridine] | 6.00 to 7.00 | > 7.00
26 | NCCc1ccccc1-c1cncc(-c2cc(-c3cc(Cl)ccc3F)nc3ncccc23)c1 [compound 152, 2-(2-{5-[2-(5-Chloro-2-fluoro-phenyl)-[1,8]naphthyridin-4-yl]-pyridin-3-yl}-phenyl)-ethylamine] | 5.00 to 6.00 | 5.00 to 6.00
27 | Fc1ccc(Cl)cc1-c1cc(-c2cncc(-c3ccc(CCN4CCOCC4)cc3)c2)c2cccnc2n1 [compound 153, 2-(5-Chloro-2-fluoro-phenyl)-4-{5-[4-(2-morpholin-4-yl-ethyl)-phenyl]-pyridin-3-yl}-[1,8]naphthyridine] | > 7.00 | > 7.00
28 | Fc1ccc(Cl)cc1-c1cc(-c2cncc(-c3ccc4c(c3)CCN4)c2)c2cccnc2n1 [compound 154, 2-(5-Chloro-2-fluoro-phenyl)-4-[5-(2,3-dihydro-1H-indol-5-yl)-pyridin-3-yl]-[1,8]naphthyridine] | 6.00 to 7.00 | 5.00 to 6.00
